Measured values as given in patent US9834558B2, “Substituted bridged urea analogs as sirtuin modulators” (GLAXOSMITHKLINE LLC, priority 2013, dated 2017).
Where two headings read alike, the source gives them in different places. One block for each molecule: values may come before it.

Molecular target: T1, SIRT1 (Homo sapiens, UniProt Q96EB6)
T1 sequence (Q96EB6 1-747): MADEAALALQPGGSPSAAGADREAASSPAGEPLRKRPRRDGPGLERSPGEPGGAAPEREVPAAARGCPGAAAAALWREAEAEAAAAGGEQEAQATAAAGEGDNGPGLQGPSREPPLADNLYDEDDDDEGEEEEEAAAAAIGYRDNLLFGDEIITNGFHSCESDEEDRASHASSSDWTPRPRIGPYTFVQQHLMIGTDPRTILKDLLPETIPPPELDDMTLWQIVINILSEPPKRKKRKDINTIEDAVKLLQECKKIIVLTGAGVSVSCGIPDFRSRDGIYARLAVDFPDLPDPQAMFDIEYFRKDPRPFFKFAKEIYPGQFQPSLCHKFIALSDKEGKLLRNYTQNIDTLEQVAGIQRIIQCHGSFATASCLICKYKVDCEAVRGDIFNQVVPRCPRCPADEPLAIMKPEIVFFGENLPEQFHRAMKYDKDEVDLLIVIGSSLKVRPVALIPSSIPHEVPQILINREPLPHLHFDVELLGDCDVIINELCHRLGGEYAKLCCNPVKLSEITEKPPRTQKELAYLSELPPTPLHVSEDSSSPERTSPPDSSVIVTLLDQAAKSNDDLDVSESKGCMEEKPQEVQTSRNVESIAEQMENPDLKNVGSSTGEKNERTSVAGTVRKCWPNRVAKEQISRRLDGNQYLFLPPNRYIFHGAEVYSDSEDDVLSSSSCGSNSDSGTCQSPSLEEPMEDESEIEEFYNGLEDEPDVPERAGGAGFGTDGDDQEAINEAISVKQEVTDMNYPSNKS
Assay: Trp mass spectrometry assay of SIRT1 activation
Type: biochemical
Conditions: for TRP Activity (EC1.5): EC1.5 = concentration that results in 150% activation of SIRT1
Outline: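 Activation read-out: mass-spec measurement of O-acetyl-ADP-ribose or deacetylated Trp peptide versus compound-free controls, giving EC1.5 and Percent Maximum Activation. Reactions ran 25 min at 25 °C, pH 7.5, with 120 μM βNAD+, 0.5 μM acetylated p53-derived peptide and 10 nM His-tagged SIRT1.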

[1] = Trp peptide assay, maximum activity relative to control (100%), read-out: TRP MAX RESP (percent maximum fold activation)
[2] = Trp mass spectrometry assay, concentration of test compound giving 150% activation of SIRT1
[3] = Trp peptide substrate, concentration giving 150% activation of SIRT1
[4] = concentration giving 150% activation of SIRT1, Trp peptide substrate
[5] = Trp mass spectrometry assay, EC1.5 = concentration of test compound that results in 150% activation of SIRT1

Compound: Cn1ccc(-c2ccc3c(n2)N(C(=O)Nc2cnccn2)[C@H]2CCN3C2)n1 [(9S)-5-(1-methyl-1H-pyrazol-3-yl)-N-(pyrazin-2-yl)-1,6,8-triazatricyclo[7.2.1.0 {2,7}]dodeca-2(7),3,5-triene-8-carboxamide]
TRP Activity (EC1.5) (Trp peptide assay): B (B (EC1.5 1-25 μM))
Emax [1]: > 150%

Compound: CC(=O)c1sc(NC(=O)N2c3nc(-c4cccc(C(F)(F)F)c4)ccc3N3CC[C@H]2C3)nc1C [Example 75]
Tryp AVG EC1.5 (μM) [3]: A (A (EC1.5<1 μM))

Compound: CN1CCCN(c2ccc3c(n2)N(C(=O)Nc2ccncn2)[C@H]2CCCN3C2)CC1 [Example 484]
Tryp AVG EC1.5 (μM) [5]: C (C (EC1.5>25 μM))

Compound: O=C(Nc1ccc(F)cn1)N1c2nc(-c3ccnc(N4CC[C@@H](F)C4)c3)ccc2N2CC[C@H]1C2 [Example 474]
Tryp AVG EC1.5 (μM) [5]: A (A (EC1.5<1 μM))

Compound: Cc1cc(-c2ccc3c(n2)N(C(=O)N2CCN(C)CC2)[C@H]2CCN3C2)ccn1 [(9S)-8-[(4-methylpiperazin-1-yl)carbonyl]-5-(2-methylpyridin-4-yl)-1,6,8-triazatricyclo[7.2.1.0 {2,7}]dodeca-2,4,6-triene]
TRP Activity (EC1.5) (Trp peptide assay): C (C (EC1.5>25 μM))
Emax [1]: < 150%

Compound: Cc1nc(NC(=O)N2c3nc(-c4cncc(F)c4)ccc3N3CCC2CC3)sc1C [Example 577]
Tryp AVG EC1.5 (μM) [5]: B (B (EC1.5 1-25 μM))

Compound: O=C(Nc1ccc(F)cn1)N1c2nc(-c3ccnc(N4CCC(C(F)(F)F)C4)c3)ccc2N2CC[C@H]1C2 (some centres unmarked) [Example 391]
Tryp AVG EC1.5 (μM) [2]: A (A (EC1.5<1 μM))

Compound: O=C(Nc1cccnc1)N1c2nc(-c3cncc(F)c3)ccc2N2CCC1CC2 [Example 572]
Tryp AVG EC1.5 (μM) [5]: B (B (EC1.5 1-25 μM))

Compound: Cc1ccncc1-c1ccc2c(n1)N(C(=O)Nc1nc(C)c(C)s1)[C@H]1CCCN2C1 [Example 508]
Tryp AVG EC1.5 (μM) [5]: C (C (EC1.5>25 μM))

Compound: Cc1c(-c2ccc3c(n2)C(C(=O)Nc2cnccn2)[C@H]2CCN3C2)cnn1C (some centres unmarked) [Example 532]
Tryp AVG EC1.5 (μM) [5]: B (B (EC1.5 1-25 μM))
Emax (Trp mass spectrometry assay, percent maximum fold activation of SIRT1, read-out: Tryp % Fold Act): > 150%

Compound: C[C@H]1COCCN1c1ccc2c(n1)N(C(=O)Nc1cccnc1)[C@H]1CCN2C1 [(9S)-5-[(3S)-3-methylmorpholin-4-yl]-N-(pyridin-3-yl)-1,6,8-triazatricyclo[7.2.1.0^2,7]dodeca-2(7),3,5-triene-8-carboxamide]
TRP Activity (EC1.5) (Trp peptide assay): B (B (EC1.5 1-25 μM))
Emax [1]: > 150%

Compound: Cc1nn(C)cc1NC(=O)N1c2nc(-c3cccc(C(F)(F)F)c3)ccc2N2CC[C@H]1C2 [Example 92]
Tryp AVG EC1.5 (μM) [3]: B (B (EC1.5 1-25 μM))

Compound: Cc1cc(NC(=O)N2c3nc(-c4cccc(C(F)(F)F)c4)ccc3N3CC[C@H]2C3)cc(Br)n1 [Example 540]
Tryp AVG EC1.5 (μM) [5]: A (A (EC1.5<1 μM))

Compound: O=C(Nc1cnccn1)N1c2nc(-c3ccc(CO)nc3)ccc2N2CC[C@H]1C2 [(9S)-5-[6-(hydroxymethyl)pyridin-3-yl]-N-(pyrazin-2-yl)-1,6,8-triazatricyclo[7.2.1.0 {2,7}]dodeca-2(7),3,5-triene-8-carboxamide]
TRP Activity (EC1.5) (Trp peptide assay): B (B (EC1.5 1-25 μM))
Emax [1]: > 150%

Compound: O=C(Nc1cccc(-c2cnco2)n1)N1c2nc(-c3cccc(C(F)(F)F)c3)ccc2N2CC[C@H]1C2 [Example 588]
Tryp AVG EC1.5 (μM) [5]: A (A (EC1.5<1 μM))

Compound: O=C(Nc1cccc(-c2cnco2)c1)N1c2nc(N3CCC[C@H](C(F)(F)F)C3)ccc2N2CC[C@H]1C2 [Example 718]
Tryp AVG EC1.5 (μM) [4]: A (A (EC1.5<1 μM))

Compound: COc1ccc(C)nc1NC(=O)N1c2nc(-c3cccc(C(F)(F)F)c3)ccc2N2CC[C@H]1C2 [Example 77]
Tryp AVG EC1.5 (μM) [3]: B (B (EC1.5 1-25 μM))

Compound: O=C(Nc1cncc(Br)c1)N1c2nc(-c3cccc(C(F)(F)F)c3)ccc2N2CC[C@H]1C2 [Example 542]
Tryp AVG EC1.5 (μM) [5]: A (A (EC1.5<1 μM))

Compound: CC(C)(C)OC(=O)NCCNC(=N)c1ccc(NC(=O)N2c3nc(-c4cccc(C(F)(F)F)c4)ccc3N3CCC[C@H]2C3)cc1 [Example 788]
Tryp AVG EC1.5 (μM) [4]: A (A (EC1.5<1 μM))

Compound: O=C(Nc1cccc(C2=CCOCC2)n1)N1c2nc(-c3cccc(C(F)(F)F)c3)ccc2N2CC[C@H]1C2 [Example 658]
Tryp AVG EC1.5 (μM) [4]: A (A (EC1.5<1 μM))

Compound: COC(=O)c1cccc(NC(=O)N2c3nc(-c4cccc(C(F)(F)F)c4)ccc3N3CC[C@H]2C3)c1 [Example 626]
Tryp AVG EC1.5 (μM) [4]: A (A (EC1.5<1 μM))

Compound: CCC(=O)c1cccc(NC(=O)N2c3nc(-c4cccc(C(F)(F)F)c4)ccc3N3CC[C@H]2C3)c1 [Example 714]
Tryp AVG EC1.5 (μM) [4]: A (A (EC1.5<1 μM))

Compound: CC(=O)O[C@H]1CN2C[C@H]1N(C(=O)Nc1ccccn1)c1nc(-c3cccc(C(F)(F)F)c3)ccc12 [Example 634]
Tryp AVG EC1.5 (μM) [4]: C (C (EC1.5>25 μM))

Compound: N#Cc1ccccc1-c1ccc2c(n1)N(C(=O)Nc1cccnn1)[C@H]1CCCN2C1 [Example 426]
Tryp AVG EC1.5 (μM) [5]: B (B (EC1.5 1-25 μM))

Compound: CC(C)(C)OC(=O)NCCCc1cc(NC(=O)N2c3nc(-c4cccc(C(F)(F)F)c4)ccc3N3CC[C@H]2C3)cc(-c2cnco2)c1 [Example 759]
Tryp AVG EC1.5 (μM) [4]: B (B (EC1.5 1-25 μM))

Compound: O=C(Nc1ccccn1)N1c2nc(N3CCC[C@H](C(F)(F)F)C3)ccc2N2CCC[C@H]1C2 [drawing 1172, (9S)-N-(pyridin-2-yl)-5-[(3S)-3-(trifluoromethyl)piperidin-1-yl]-1,6,8-triazatricyclo[7.3.1.0 {2,7}]trideca-2(7),3,5-triene-8-carboxamide]
TRP Activity (EC1.5) (Trp peptide assay): B (B (EC1.5 1-25 μM))
Emax [1]: > 150%

Compound: O=C(Nc1cccc(OC[C@H](O)CO)n1)N1c2nc(-c3cccc(C(F)(F)F)c3)ccc2N2CC[C@H]1C2 [Example 819]
Tryp AVG EC1.5 (μM) [4]: A (A (EC1.5<1 μM))

Compound: CC(C)(C)OC(=O)NCC#Cc1ccc(NC(=O)N2c3nc(-c4cccc(C(F)(F)F)c4)ccc3N3CCC[C@H]2C3)cc1-c1cnco1 [Example 753]
Tryp AVG EC1.5 (μM) [4]: A (A (EC1.5<1 μM))

More lines, now with the values ahead:

Tryp AVG EC1.5 (μM) [2]: A (A (EC1.5<1 μM))
Compound: COc1cc(NC(=O)N2c3nc(-c4cccc(Cl)c4)ccc3N3CCC[C@H]2C3)ncn1 [Example 408]

Tryp AVG EC1.5 (μM) [4]: A (A (EC1.5<1 μM))
Compound: O=C(Nc1cccc(Br)n1)N1c2nc(-c3cccc(C(F)(F)F)c3)ccc2N2CC[C@H]1C2 [Example 652]

TRP Activity (EC1.5) (Trp peptide assay): B (B (EC1.5 1-25 μM))
Emax [1]: > 150%
Compound: CN(C)c1cccc(-c2ccc3c(n2)N(C(=O)Nc2cnccn2)[C@H]2CCN3C2)c1 [(9S)-5-[3-(dimethylamino)phenyl]-N-(pyrazin-2-yl)-1,6,8-triazatricyclo[7.2.1.0 {2,7}]dodeca-2(7),3,5-triene-8-carboxamide]

Tryp AVG EC1.5 (μM) [5]: A (A (EC1.5<1 μM))
Compound: O=C(Nc1ccnc(Br)c1)N1c2nc(-c3cccc(C(F)(F)F)c3)ccc2N2CC[C@H]1C2 [Example 541]

TRP Activity (EC1.5) (Trp peptide assay): A (A (EC1.5<1 μM))
Emax [1]: > 150%
Compound: O=C(Nc1cncc(F)c1)N1c2nc(-c3ccnc(C(F)(F)F)c3)ccc2N2CCC[C@H]1C2 [(9S)-N-(5-fluoropyridin-3-yl)-5-[2-(trifluoromethyl)pyridin-4-yl]-1,6,8-triazatricyclo[7.3.1.0 {2,7}]trideca-2(7),3,5-triene-8-carboxamide]

Tryp AVG EC1.5 (μM) [5]: A (A (EC1.5<1 μM))
Compound: Cc1cncc(-c2ccc3c(n2)N(C(=O)Nc2cccnc2)[C@H]2CCCN3C2)c1 [Example 515]

Tryp AVG EC1.5 (μM) [5]: C (C (EC1.5>25 μM))
Compound: COc1cc(NC(=O)N2c3nc(-c4ccccc4C#N)ccc3N3CCC[C@H]2C3)ncn1 [Example 440]

TRP Activity (EC1.5) (Trp peptide assay): B (B (EC1.5 1-25 μM))
Emax [1]: > 150%
Compound: COc1cc(-c2ccc3c(n2)N(C(=O)Nc2cnccn2)[C@H]2CCN3C2)ccn1 [(9S)-5-(2-methoxypyridin-4-yl)-N-(pyrazin-2-yl)-1,6,8-triazatricyclo[7.2.1.0 {2,7}]dodeca-2(7),3,5-triene-8-carboxamide]

Tryp AVG EC1.5 (μM) [5]: C (C (EC1.5>25 μM))
Compound: COc1cc(NC(=O)N2c3nc(-c4cncc(Cl)c4)ccc3N3CCC2CC3)ncn1 [Example 552]

Tryp AVG EC1.5 (μM) [2]: A (A (EC1.5<1 μM))
Compound: N#Cc1cccc(-c2ccc3c(n2)N(C(=O)Nc2ccccn2)[C@H]2CCCN3C2)c1 [Example 348]

Tryp AVG EC1.5 (μM) [2]: B (B (EC1.5 1-25 μM))
Compound: COc1cc(NC(=O)N2c3nc(-c4ccnc(N5CCC(C(F)(F)F)C5)c4)ccc3N3CC[C@H]2C3)ncn1 (some centres unmarked) [Example 368]

Tryp AVG EC1.5 (μM) [5]: B (B (EC1.5 1-25 μM))
Compound: COc1cc(NC(=O)N2c3nc(-c4cccc(N5CCOCC5)c4)ccc3N3CCC[C@H]2C3)ncn1 [Example 528]

Tryp AVG EC1.5 (μM) [5]: B (B (EC1.5 1-25 μM))
Compound: COc1cc(NC(=O)N2c3nc(-c4ccnc(N5CC[C@@H](F)C5)c4)ccc3N3CC[C@H]2C3)ncn1 [Example 424]
